The source of these data is patent publication US8133686B2 (Van Andel Research Institute, priority 2008, dated 2012).

The test system of one test is SN12C xenografts. The test can be described thus: SN12C xenograft model, intermittent sunitinib dosing (3 weeks on, 3 weeks off).
The subject of a further test is HUVEC and HLMVEC cells. The experiment in a line: cells. As to conditions: Homo sapiens.
The subject of a further test is RCC cell lines. The test can be described thus: cells. As to conditions: Homo sapiens.
The next test concerns A-498 xenografts. The experiment in a line: A-498 xenograft model, intermittent sunitinib dosing (3 weeks on, 3 weeks off).
Setting [1] is: preliminary studies (data not shown).
Setting [2] is: 40 mg/kg, 3-weeks-on and 3-weeks-off.

Structures are written as SMILES. Read-outs that look alike come from different tables or passages of the source.

As to `CCN(CC)CCNC(=O)c1c(C)[nH]c(/C=C2\C(=O)Nc3ccc(F)cc32)c1C` [SU11248, sunitinib], the “treated SN12C xenograft mice showing phenotypic resistance” value in the test on SN12C xenografts (80 mg/kg, 3-weeks-on and 3-weeks-off) worked out at 33%. Moreover, the “minimal required dosage to induce stable disease” value in the test on SN12C xenografts (setting [1]) is on record as 80 mg/kg; in the test with A-498 xenografts (setting [1]) it was 40 mg/kg. For the same compound, the IC50 with HUVEC and HLMVEC cells (read-out: IC50 on proliferation of endothelial cell lines) is around 0.01 µM; with HUVEC and HLMVEC cells (read-out: IC50 on proliferation of endothelial cells), around 6 µM; in the test with RCC cell lines (read-out: IC50 on proliferation of RCC cell lines, similar under both conditions: normal culture/complete medium and ligand-dependent/PDGF-only), 4 to 10 µM; in the test with RCC cell lines (read-out: IC50 on proliferation of RCC cells, complete medium) it was 4 to 10 µM; in the test with RCC cell lines (read-out: IC50 on proliferation of RCC cells, ligand-dependent condition) it was 2 to 6 µM. Moreover, in the test with A-498 xenografts (setting [2]), the “treated A-498 xenograft mice showing phenotypic resistance” value is on record as 38%. The “treated A-498 xenograft mice showing phenotypic resistance (resistant/treated)” value in the test with A-498 xenografts (setting [2]) is 13/34.
